# Patent US20220333077A1, “Product for Therapy and Methods” (The University of Bristol, priority 2019, published 2022)
# Entries after “also recorded” stand apart in the source; their conditions may differ. Residues, ends and D or L forms follow the SMILES beside them. *: point of attachment. Cbz = O=C(OCc1ccccc1)*
# How the values were obtained:
# [1] = test system: thymidine phosphorylase (TP); assay: Effect of degradation inhibitors on TP expression in differentiating cTP cells; type: cell-based, human; conditions: day 14 cTP cells, 24 hours incubation; 10 μM leupeptin or 5 μM MG132
# Source text: The substantial loss of TP enzyme expression during differentiation could mean that TP is being actively degraded during terminal differentiation. To test whether exogenous TP degradation during differentiation is due to ubiquitination or lysosomal degradation, we subjected the day 14 (orthochromatic erythrocytes) cTP cells to an ubiquitination inhibitor MG132, or a lysosomal degradation inhibitor, leupeptin (Tsubuki, S., et al., J Biochem, 1996, 119(3), p. 572-6; Hershko, A. and A. Ciechanover, Annu Rev Biochem, 1982, 51, p. 335-64). TP expression was first measured on day 14 and then 24 hours after incubation with inhibitors or the vehicle control.
# As previously described (Griffiths, R. E., et al., Blood, 2012. 119(26), p. 6296-306), CD34+ haemopoietic stem cells (HSC) here isolated from human blood donor mononuclear cells or from thawed cryopreserved cord blood units by magnetic bead separation according to manufacturer's instructions (Miltenyi Biotech Ltd, Bisley UK). CD34+ cells were grown at a density of 2×10^5 cells/ml using a base medium consisting of IMDM (Source BioScience) containing 3% (v/v) AB Serum, 2 mg/ml HSA, 10 μg/ml Insulin, 3U/ml heparin, 500 μg/ml transferrin and 3U/ml Epo. […] Cells where fixed with paraformaldehyde and analysed by flow cytometry.
# glutamine synthase = assay: MG132 effect on glutamine synthase levels in GS (over)expressing erythroblasts, flow cytometry; type: cell-based, human; conditions: MG132 added at day 15, expression measured at day 19
# Source text: To investigate the degree to which exogenous enzyme expression is retained during erythropoiesis, four different enzymes were expressed in CD34+ haematopoietic stem cells (using lentivirus) and subsequently differentiated to reticulocytes: glutamine synthase (FIG. 8), adenosine deaminase (FIG. 9), L-asparaginase (FIG. 10), and uricase (FIG. 11). The exogenous proteins Uricase (a bacterial enzyme), human L-asparaginase (ASP) and human […] (ADA) were tagged with c-Myc to facilitate measurement of expression during differentiation by flow cytometry and western blot. GAPDH is an endogenous enzyme which was also blotted for in some cases. For human glutamine synthetase (GS) an antibody specific for this protein was used to detect expression by flow cytometry. The bar graphs in FIGS. 8-11 show expression of indicated enzymes during differentiation as assessed by flow cytometry across two different cultures. Western blots illustrate expression of the enzymes in in vitro derived reticulocytes. To explore whether ubiquitination enhances GS enzyme retention at the end of the culture, MG132 (a ubiquitin inhibitor) was added at day 15 to the GS (over)expressing erythroblasts. Expression was measured at day 19 by flow cytometry.
# [2] = target: T1, thymidine phosphorylase (TP) (Homo sapiens, UniProt P19971); assay: Thymidine supplementation of differentiation media, TP enzyme abundance in reticulocytes; type: cell-based
# T1 construct: expressed in transfected cells; host or cells: CD34+-derived cultured human erythroid progenitors (cTP) and BEL-A erythroid cells (bTP), lentiviral XLG3 vector
# T1 sequence (P19971 11-482): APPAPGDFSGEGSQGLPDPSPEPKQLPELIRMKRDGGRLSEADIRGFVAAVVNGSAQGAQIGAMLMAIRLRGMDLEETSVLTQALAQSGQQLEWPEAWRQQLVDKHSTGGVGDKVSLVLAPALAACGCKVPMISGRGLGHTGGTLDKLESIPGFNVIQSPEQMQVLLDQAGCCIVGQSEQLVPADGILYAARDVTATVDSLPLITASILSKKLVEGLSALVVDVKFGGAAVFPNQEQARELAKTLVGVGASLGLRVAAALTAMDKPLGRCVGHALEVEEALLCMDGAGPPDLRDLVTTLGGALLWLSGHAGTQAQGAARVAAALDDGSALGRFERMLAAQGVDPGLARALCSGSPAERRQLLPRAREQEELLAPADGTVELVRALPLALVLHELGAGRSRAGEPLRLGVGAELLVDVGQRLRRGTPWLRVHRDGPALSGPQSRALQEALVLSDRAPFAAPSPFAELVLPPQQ
# Source text: After further examination of the molecular human TP structure we observed that the 2 ubiquitination sites that correspond with murine TP, would only be available for ubiquitination in the absence of substrate.
# Reticulocytes were identified by gating upon Hoechst-negative population.
# [3] = test system: in vitro cultured erythroid cells; type: cell-based; conditions: 0.5 mM thymidine added early, e.g. Day 0 of differentiation; data not shown
structure (smiles),measurement,setting,value
CC(C)C[C@@H](C=O)NC(=O)[C@H](CC(C)C)NC(=O)[C@H](CC(C)C)NC(=O)OCc1ccccc1 [MG132] (Cbz-Leu-Leu-Leu-aldehyde),effect on TP degradation during differentiation,[1],protected TP from degradation during differentiation; also recorded: inhibition of degradation was observed
same,glutamine synthase levels in reticulocytes,glutamine synthase,increases glutamine synthase levels in reticulocytes
CC(=O)N[C@@H](CC(C)C)C(=O)N[C@@H](CC(C)C)C(=O)N[C@H](C=O)CCCNC(=N)N [leupeptin],effect on TP degradation during differentiation,[1],did not impair degradation
Cc1cn([C@H]2C[C@H](O)[C@@H](CO)O2)c(=O)[nH]c1=O [thymidine],TP enzyme abundance compared to standard differentiation media,"[2]; bTP reticulocytes, 0.5 mM thymidine daily from day 6 (polychromatic erythroblast stage)",doubled
same,TP enzyme abundance compared to standard differentiation media,"[2]; cTP reticulocytes, 0.5 mM thymidine daily from day 14 (polychromatic erythroblast stage)",doubled
same,concentration of active TP in the reticulocyte,"[2]; thymidine added to the media, un-mutated ubiquitination site",roughly double
same,cell death and differentiation,[3],increase in cell death and inhibition of differentiation
